In ChEMBL document CHEMBL5579882, “Synthesis and Photodynamic Activities of Pyridine- or Pyridinium-Substituted Aza-BODIPY Photosensitizers” (J Med Chem, 2024):
The source made the active and inactive calls. The rule behind the calls is not given here.

Assays:
HeLa [1] = experiment: Phototoxicity against human HeLa cells assessed as inhibition of cell viability preincubated for 3 hrs followed by photo-irradiation of 54 J/cm2 for 24 hrs by CCK8 assay; type: functional, cell-based; details: light or radiation study
[2] = Dark cytotoxicity against human HeLa cells assessed as inhibition of cell viability incubated for 3 hrs by CCK8 assay; type: toxicity, cell-based
[3] = Dark cytotoxicity against human HepG2 cells assessed as inhibition of cell viability incubated for 3 hrs by CCK8 assay; type: toxicity, cell-based
HepG2 = experiment: Phototoxicity against human HepG2 cells assessed as inhibition of cell viability preincubated for 3 hrs followed by photo-irradiation of 54 J/cm2 for 24 hrs by CCK8 assay; type: functional, cell-based; details: HepG2, light or radiation study
[4] = Drug uptake in human HeLa cells assessed as increase in red fluorescence signal at 5 uM incubated for 3 hrs by fluorescence imaging based analysis; type: ADME, cell-based
HeLa [5] = experiment: Antitumor activity against human HeLa cells xenografted in nude BALB/c nu/nu mouse assessed as decrease in tumor growth at 2.5 umol/kg, iv with light irradiation of 30 J/cm2 for 1 hr measured after 24 hrs; type: functional, organism-based; details: dose 2.5 µmol/kg, time 25.0 hrs
[6] = Toxicity in nude BALB/c nu/nu mouse bearing human HeLa cells assessed as pathological change in spleen at 2.5 umol/kg, iv with light irradiation of 30 J/cm2 for 1 hr measured for 24 hrs by H and E staining based analysis; type: organism-based; details: in vivo, 25 h, dose 2.5 µmol/kg
[7] = Biodistribution in liver of nude BALB/c nu/nu mouse bearing human HeLa cells at 2.5 umol/kg, iv measured for 3 hrs by IVIS analysis; type: ADME, organism-based; details: in vivo, dose 2.5 µmol/kg
HeLa [8] = experiment: Induction of ROS generation in human HeLa cells assessed as increase in green fluorescence incubated for 3 hrs followed by light irradiation of 54 J/cm2 by H2DCFDA staining based analysis; type: functional, cell-based; details: dose 25-200 nM
[9] = Biodistribution in lung of nude BALB/c nu/nu mouse bearing human HeLa cells at 2.5 umol/kg, iv measured for 3 hrs by IVIS analysis; type: ADME, organism-based; details: in vivo, dose 2.5 µmol/kg
HeLa [10] = experiment: Induction of ROS generation in human HeLa cells without light irradiation at 200 nM incubated for 3 hrs by H2DCFDA staining based analysis; type: functional, cell-based
[11] = Drug uptake in lipid droplet of human HeLa cells at 5 uM incubated for 3 hrs by BODIPY 493/503 dye based analysis; type: ADME, subcellular
HeLa [12] = experiment: Induction of cell death in human HeLa cells assessed as increase in bright red signal at 400 nM incubated for 3 hrs followed by light irradiation of 54 J/cm2 by Calcein-AM/PI staining based analysis; type: functional
[13] = Toxicity in nude BALB/c nu/nu mouse bearing human HeLa cells assessed as pathological change in lung at 2.5 umol/kg, iv with light irradiation of 30 J/cm2 for 1 hr measured for 24 hrs by H and E staining based analysis; type: organism-based; details: in vivo, 25 h, dose 2.5 µmol/kg
[14] = Toxicity in nude BALB/c nu/nu mouse bearing human HeLa cells assessed as pathological change in kidney at 2.5 umol/kg, iv with light irradiation of 30 J/cm2 for 1 hr measured for 24 hrs by H and E staining based analysis; type: organism-based; details: in vivo, 25 h, dose 2.5 µmol/kg
HeLa [15] = experiment: Induction of cell death in human HeLa cells assessed as increase in bright red signal at 400 nM incubated for 3 hrs followed by light irradiation of 54 J/cm2 in presence of Fer-1 inhibitor by Calcein-AM/PI staining based analysis; type: functional
[16] = Toxicity in nude BALB/c nu/nu mouse bearing human HeLa cells assessed as pathological change in heart at 2.5 umol/kg, iv with light irradiation of 30 J/cm2 for 1 hr measured for 24 hrs by H and E staining based analysis; type: organism-based; details: in vivo, 25 h, dose 2.5 µmol/kg
HeLa [17] = experiment: Induction of cell death in human HeLa cells assessed as increase in bright red signal at 400 nM incubated for 3 hrs followed by light irradiation of 54 J/cm2 in presence of DFO inhibitor by Calcein-AM/PI staining based analysis; type: functional
HeLa [18] = experiment: Induction of lipid peroxidation in human HeLa cells assessed as increase in green fluorescence with a light dose of 54 J/cm2 at 100 to 400 nM incubated for 3 hrs by BODIPY 581/591 C11 dye based analysis; type: functional, cell-based; details: dose 100-400 nM
HeLa [19] = experiment: Antitumor activity against human HeLa cells xenografted in nude BALB/c nu/nu mouse assessed as pathological damage in tumor at 2.5 umol/kg, iv with light irradiation of 30 J/cm2 for 1 hr measured after 24 hrs by H and E staining based analysis; type: functional, organism-based; details: dose 2.5 µmol/kg, time 25.0 hrs
[20] = Drug uptake in mitochondria of human HeLa cells at 5 uM incubated for 3 hrs by MitoTracker Green FM dye based analysis; type: ADME
[21] = Toxicity in nude BALB/c nu/nu mouse bearing human HeLa cells assessed as drug tolerance at 2.5 umol/kg, iv with light irradiation of 30 J/cm2 for 1 hr measured for 24 hrs; type: organism-based; details: in vivo, 25 h, dose 2.5 µmol/kg
[22] = Drug uptake in human HeLa cells assessed as fold increase in fluorescence intensity at 5 uM incubated for 3 hrs by fluorescence imaging based analysis relative to control; type: ADME, cell-based
[23] = Toxicity in nude BALB/c nu/nu mouse bearing human HeLa cells assessed as steady body weight increment at 2.5 umol/kg, iv with light irradiation at 30 J/cm2 for 1 hr measured for 24 hrs; type: organism-based; details: in vivo, 25 h, dose 2.5 µmol/kg
HeLa [24] = experiment: Induction of cell death in human HeLa cells assessed as increase in bright red signal at 400 nM incubated for 3 hrs followed by light irradiation of 54 J/cm2 in presence of Lip-1 inhibitor by Calcein-AM/PI staining based analysis; type: functional
[25] = Biodistribution in kidney of nude BALB/c nu/nu mouse bearing human HeLa cells at 2.5 umol/kg, iv measured for 3 hrs by IVIS analysis; type: ADME, organism-based; details: in vivo, dose 2.5 µmol/kg
[26] = Biodistribution in spleen of nude BALB/c nu/nu mouse bearing human HeLa cells at 2.5 umol/kg, iv measured for 3 hrs by IVIS analysis; type: ADME, organism-based; details: in vivo, dose 2.5 µmol/kg
[27] = Drug uptake in lysosome of human HeLa cells at 5 uM incubated for 3 hrs by LysoTracker Green DND-26 dye based analysis; type: ADME, subcellular
HeLa [28] = experiment: Induction of cell death in human HeLa cells under dark condition upto 400 nM incubated for 3 hrs by Calcein-AM/PI staining based analysis; type: functional
[29] = Toxicity in nude BALB/c nu/nu mouse bearing human HeLa cells assessed as pathological change in liver at 2.5 umol/kg, iv with light irradiation of 30 J/cm2 for 1 hr measured for 24 hrs by H and E staining based analysis; type: organism-based; details: in vivo, 25 h, dose 2.5 µmol/kg
HeLa [30] = experiment: Biodistribution in human HeLa cells xenografted in nude BALB/c nu/nu mouse at 2.5 umol/kg, iv measured for 3 hrs by IVIS analysis; type: ADME, organism-based; details: in vivo, dose 2.5 µmol/kg
[31] = Drug uptake in endoplasmic reticulum of human HeLa cells at 5 uM incubated for 3 hrs by ER-Tracker Green dye based analysis; type: ADME, subcellular
[32] = Biodistribution in skin of nude BALB/c nu/nu mouse bearing human HeLa cells at 2.5 umol/kg, iv measured for 3 hrs by IVIS analysis; type: ADME, organism-based, Skin of body; details: in vivo, dose 2.5 µmol/kg

For COc1ccc(-c2c(I)c(-c3ccncc3)c3n2[B-](F)(F)[N+]2=C4C(=C(c5ccccc5)C2=N3)CCc2cc(OC)ccc24)cc1, the IC50 (HeLa [1]) was 6.1 nM, the IC50 at 3 h [2] was over 50000 nM and the IC50 at 3 h [3] was over 50000 nM. For the same compound, the IC50 (HepG2) was 11.1 nM.

For COc1ccc(C2=[N+]3C(=Nc4c(-c5ccncc5)c5c(n4[B-]3(F)F)-c3ccc(OC)cc3CC5)C(c3ccccc3)=C2I)cc1, the IC50 (HeLa [1]) was 33.9 nM, the IC50 at 3 h [2] was 37200 nM and the IC50 at 3 h [3] was over 50000 nM. For the same compound, the IC50 (HepG2) was 35.8 nM.

COc1ccc(-c2c(I)c(-c3cccc[n+]3C)c3n2[B-](F)(F)[N+]2=C4C(=C(c5ccccc5)C2=N3)CCc2cc(OC)ccc24)cc1 gave an IC50 (HeLa [1]) of 118 nM and an IC50 at 3 h [2] of 6100 nM.

For COc1ccc(C2=[N+]3C(=Nc4c(-c5ccncc5)c(I)c(-c5ccc(OC)cc5)n4[B-]3(F)F)C(c3ccccc3)=C2)cc1, the IC50 (HeLa [1]) was 50.1 nM and the IC50 at 3 h [2] was 20600 nM.

With COc1ccc(C2=[N+]3C(=Nc4c(-c5ccccc5)c(Br)c(-c5ccc(OC)cc5)n4[B-]3(F)F)C(c3ccccc3)=C2Br)cc1 the IC50 (HeLa [1]) was 64.2 nM and the IC50 at 3 h [2] was 41700 nM.

With COc1ccc(C2=[N+]3C(=Nc4c(-c5ccccc5)c5c(n4[B-]3(F)F)-c3ccc(OC)cc3CC5)C(c3ccccc3)=C2I)cc1 the Drug uptake [4] was “Active”, the IC50 at 3 h [2] was over 50000 nM and the IC50 at 3 h [3] was over 50000 nM. The Activity (HeLa [5]) was “Active”.

COc1ccc(-c2c(I)c(-c3cc[n+](C)cc3)c3n2[B-](F)(F)[N+]2=C4C(=C(c5ccccc5)C2=N3)CCc2cc(OC)ccc24)cc1 gave an IC50 (HeLa [1]) of 129 nM and an IC50 at 3 h [2] of 3300 nM.

For COc1ccc(C2=[N+]3C(=Nc4c(-c5ccc[n+](C)c5)c(I)c(-c5ccc(OC)cc5)n4[B-]3(F)F)C(c3ccccc3)=C2)cc1, the IC50 (HeLa [1]) was 214 nM and the IC50 at 3 h [2] was 11200 nM.

Compound COc1ccc(-c2c(I)c(-c3ccccn3)c3n2[B-](F)(F)[N+]2=C4C(=C(c5ccccc5)C2=N3)CCc2cc(OC)ccc24)cc1 has an IC50 (HeLa [1]) of 12.1 nM, an IC50 at 3 h [2] of 17900 nM and an IC50 at 3 h [3] of over 50000 nM. For the same compound, the IC50 (HepG2) was 7.2 nM.

For COc1ccc(-c2c(I)c(-c3ccc[n+](C)c3)c3n2[B-](F)(F)[N+]2=C4C(=C(c5ccccc5)C2=N3)CCc2cc(OC)ccc24)cc1, the IC50 (HeLa [1]) was 6 nM and the IC50 at 3 h [2] was 1200 nM.

With C=Cc1c(C)c2cc3nc(c(CC(=O)O)c4[nH]c(cc5nc(cc1[nH]2)C(C)=C5CC)c(C)c4C(=O)O)[C@@H](CCC(=O)O)[C@@H]3C [CHLORIN E6] the IC50 at 3 h [2] was over 50000 nM, the IC50 at 3 h [3] was over 50000 nM and the Activity (HeLa [5]) was “inactive”.

Compound COc1ccc(C2=[N+]3C(=Nc4c(-c5cccnc5)c(I)c(-c5ccc(OC)cc5)n4[B-]3(F)F)C(c3ccccc3)=C2)cc1 has an IC50 (HeLa [1]) of 42.9 nM and an IC50 at 3 h [2] of 17100 nM.

For COc1ccc(-c2c(I)c(-c3cccnc3)c3n2[B-](F)(F)[N+]2=C4C(=C(c5ccccc5)C2=N3)CCc2cc(OC)ccc24)cc1, the IC50 (HeLa [1]) was 10.4 nM, the Activity [6] was “Non-Toxic” and the Drug uptake [7] was “Active”. For the same compound, the Activity (HeLa [8]) was “Dose-Dependent Effect”, the Drug uptake [9] was “Active” and the Activity (HeLa [10]) was “inactive”. For the same compound, the Drug uptake [11] was “Active”, the Activity (HeLa [12]) was “Active” and the Activity [13] was “Non-Toxic”. For the same compound, the Activity [14] was “Non-Toxic”, the Activity (HeLa [15]) was “inactive” and the Activity [16] was “Non-Toxic”. For the same compound, the Activity (HeLa [17]) was “Active”, the Activity (HeLa [18]) was “Active” and the IC50 at 3 h [2] was over 50000 nM. For the same compound, the Activity (HeLa [19]) was “Active”, the Drug uptake [20] was “Not Active” and the Activity [21] was “Non-Toxic”. For the same compound, the “fold change (FC)” value [22] was 6, the Activity [23] was “Non-Toxic” and the Activity (HeLa [24]) was “inactive”. The IC50 at 3 h [3] was over 50000 nM, the Drug uptake [25] was “Active” and the Drug uptake [26] was “Active”. For the same compound, the IC50 (HepG2) was 6.9 nM, the Drug uptake [27] was “Not Active” and the Activity (HeLa [28]) was “inactive”. For the same compound, the Activity [29] was “Non-Toxic”, the Drug uptake (HeLa [30]) was “Active” and the Drug uptake [31] was “Not Active”. For the same compound, the Activity (HeLa [5]) was “Active” and the Drug uptake [32] was “Not Active”.

COc1ccc(C2=[N+]3C(=Nc4c(-c5cccnc5)c5c(n4[B-]3(F)F)-c3ccc(OC)cc3CC5)C(c3ccccc3)=C2I)cc1 showed an IC50 (HeLa [1]) of 19.1 nM, an IC50 at 3 h [2] of 37400 nM and an IC50 at 3 h [3] of over 50000 nM. The IC50 (HepG2) was 7.5 nM.

Compound COc1ccc(C2=[N+]3C(=Nc4c(-c5ccc[n+](C)c5)c5c(n4[B-]3(F)F)-c3ccc(OC)cc3CC5)C(c3ccccc3)=C2I)cc1 has an IC50 (HeLa [1]) of 41.8 nM and an IC50 at 3 h [2] of 2300 nM.
